Source: US20060134124A1, “Immunosuppression” (ML Laboratories PLC, priority 1998, published 2006)

Assays:
[1] = system: native porcine B7-2 molecule expressed on the surface of porcine B7-2 transfected P815 cells; experiment: Flow cytometry of immunised-mouse sera on poB7-2 transfected P815 cells; type: binding; conditions: for recognition (staining) of porcine B7-2 transfected P815 cells by sera: sera of mice immunised with single peptide, FIGS. 17a and 17b
Source text: (II) Transfected P815 cells are crucial reagents for the detection of porcine anti-B7-2 antibody in the sera of immunised mice which have undergone the chimeric peptide immunisation regimen. Flow cytometric analysis with control or poB7-2-transfected P815 cells, reflects the specificity of sera for B7-2.
(§1) Peptide ELISAs are used to screen for the presence of anti-peptide antibody in the sera. Peptides are coated to plates by virtue of aldehyde linkages to allow free access of Ab to the peptide (78), Plates are coated with individual peptides or the ova control peptide to enable the identification of specific peptides of interest. To detect reactivity of sera with the native B7-2 molecule expressed on the surface of PoB7-2 transfected P815 cells, flow cytometry is performed following surface staining. Having identified CS peptide of interest (peptide ELISA positive and recognising native B7-2) the sera is used to inhibit in vitro T cell proliferative responses. This determines whether the antibody is a blocking antibody.
(§2) Immunisations involved two groups of mice, one received a pool of all nine B7-2 peptides, and one receiving ova control peptide. The harvested sera were screened by peptide ELISA (FIG. 14a or 14b) which enabled the identification of peptides of interest. […] Peptide 4 and 6 were selected as candidate peptides and used in subsequent immunisation protocol. […] Similar protocols will be followed with peptide 2.

T cell proliferation = T cell proliferation response to whole ovalbumin or OVA 323-339 peptide after immunisation with whole ovalbumin; type: in vivo, C57BL-6 mice; conditions: following immunisation with whole ovalbumin; FIG. 13
Source text: FIG. 13 represents a comparison of T cell proliferation response to whole ovalbumen or the ovalbumen peptide Ova323-339;
The peptide sequences and amino acid positions for peptides 1-10 relate to the position of the B7-2 peptide sequence within porcine B7-2. The amino acid position for the ova sequence is only indicated for the Ova peptide. A 17 amino acid peptide from chicken egg albumin (ovalbumin) was selected as the T cell epitope, OVA323-339 (ISQAVHAAHAEINEAGR). This epitope was selected on the basis of published reports for the generation of a H-2^b restricted T cell response (76, 77). […] Peptides were generated on a peptide synthesiser (Genosys) and crude peptides were purified by HPLC to greater than 70% purity.

porcine B7-2 peptides = experiment: Peptide ELISA of sera from mice immunised with OVA-B7-2 chimeric peptides; type: in vivo, C57BL-6 mice; conditions: for level of peptide-specific IgG in the sera of immunised mice: immunisation with peptide 4 or 6, FIGS. 15a and 15b; for binding of antisera to B7 peptide versus ova control by peptide ELISA: sera of mice that received a pool of all nine B7-2 peptides, FIG. 14a or 14b
Source text: C57BL-6 mice are immunised with whole ovalbumin in CFA, followed by either control peptide (OVA peptide) or CS peptides (OVA-B7-2 constructs) for three weekly immunisations. Blood is collected following sacrifice and sera prepared using a standard technique. Presence of specific mouse anti-porcine B7-2 IgG and/or IgM Ab is detected by one of two strategies.
as §1, §2

[2] = system: direct mouse anti porcine T cell responses; experiment: Inhibition of in vitro T cell proliferative responses by peptide sera; type: cell-based; conditions: FIG. 15b
Experimental: as §1

murine CD86 = molecular target: T1, murine CD86 (Mus musculus, UniProt P42082); experiment: Inhibition of costimulation by murine CD86 by peptide sera; type: cell-based; conditions: FIG. 15b
T1 sequence (P42082 24-309): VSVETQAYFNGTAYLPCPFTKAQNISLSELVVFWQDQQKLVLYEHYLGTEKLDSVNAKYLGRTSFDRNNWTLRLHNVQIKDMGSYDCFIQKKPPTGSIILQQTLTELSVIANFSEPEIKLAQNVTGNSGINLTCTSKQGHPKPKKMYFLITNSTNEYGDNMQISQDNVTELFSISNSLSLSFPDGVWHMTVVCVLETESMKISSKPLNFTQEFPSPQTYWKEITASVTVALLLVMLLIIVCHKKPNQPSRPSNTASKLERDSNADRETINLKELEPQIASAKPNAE

Row | inhibition of costimulation by murine CD86 by sera (murine CD86) | Substance | recognition (staining) of porcine B7-2 transfected P815 cells by sera [1] | staining of untransfected control P815 cells by sera [1] | proliferative response of C57BL-6 mice (H-2b haplotype) (T cell proliferation) | level of peptide-specific IgG in the sera of immunised mice (porcine B7-2 peptides) | binding of antisera to B7 peptide versus ova control by peptide ELISA (porcine B7-2 peptides) | inhibition of direct mouse anti porcine T cell responses by sera [2] | specificity of the sera for the peptide versus ova control (porcine B7-2 peptides; peptide ELISA, FIG. 16)
1 |  | ISQAVHAAHAEINEAGR [Ova Peptide, control peptide, reference compound] | do not stain | do not stain | mount a proliferative response |  |  |  | 
2 | no inhibition | ISQAVHAAHAEINEAGRCSSTQGYPEPQR [Peptide 6] | specifically recognise the native porcine B7-2 molecule | do not stain |  | significant level of IgG | preferential binding to B7 peptide than to ova control | inhibition of direct mouse anti porcine T cell responses | 
3 | no inhibition | ISQAVHAAHAEINEAGRGLVPIHQMS [Peptide 4] | specifically recognise the native porcine B7-2 molecule | do not stain |  | significant level of IgG | preferential binding to B7 peptide than to ova control | inhibition of direct mouse anti porcine T cell responses | specificity of the sera for peptide 4 and not to ova control
4 |  | ISQAVHAAHAEINEAGRLPCHFTNSQ [Peptide 2] |  |  |  |  | preferential binding to B7 peptide than to ova control |  | 
5 |  | ovalbumin [chicken egg albumin used whole for priming immunisation] |  |  | mount a proliferative response |  |  |  | 
